Test results taken from the OPERA property sets (Mansouri et al. 2018).
Converted amounts (≈) assume the structure as drawn.

details: not given

SMILES	solubility
Cc1cc(C)c(C(=O)O)c(C)c1	4.4 mM (≈ 0.722 mg/mL)
CCc1cccc(CC)c1N	4.49 mM (≈ 0.67 mg/mL)
NCCNCCNCCNCCN	34500 mM (≈ 6540 mg/mL)
CC(=O)N=c1sc(S(N)(=O)=O)nn1C	14.8 mM (≈ 3.5 mg/mL)
Nc1ccc(-c2ccc(Cl)cc2)cc1	0.023 mM (≈ 0.00468 mg/mL)
ClCCCCCl	120 mM (≈ 15.3 mg/mL)

same assay, conditions: 20 °C

SMILES	solubility
O=C(O)c1nc[nH]c1C(=O)O	3.2 mM (≈ 0.5 mg/mL)
OCCCCl	2640 mM (≈ 250 mg/mL)
CC(=O)C=C(C)C	294 mM (≈ 28.9 mg/mL)
COC(=O)c1ccc(OC)cc1	3.87 mM (≈ 0.643 mg/mL)
CCCOC(=O)c1ccccc1C(=O)OCCC	0.432 mM (≈ 0.108 mg/mL)
CC(C)Cl	39.5 mM (≈ 3.1 mg/mL)
CCOP(=S)(NC(C)C)Oc1ccccc1C(=O)OC(C)C (stereo unspecified)	0.064 mM (≈ 0.0221 mg/mL)
Clc1cc(Cl)c(-c2cccc(Cl)c2Cl)cc1Cl	8.7e-05 mM (≈ 2.84e-05 mg/mL)
C[C@@H](CCl)[N+](=O)[O-]	64.8 mM (≈ 8 mg/mL)
COc1ccc2c(c1O)[C@]13CCN(C)[C@H](C2)[C@@H]1C=CC(=O)C3	13.4 mM (≈ 4 mg/mL)
Oc1nc(O)c2nccnc2n1	7.62 mM (≈ 1.25 mg/mL)
OCCOc1ccccc1	193 mM (≈ 26.7 mg/mL)

same assay, conditions: 23 °C

SMILES	solubility
NC(=O)CC(N)C(=O)O (stereo unspecified)	172 mM (≈ 22.7 mg/mL)
CC(=O)Nc1cc(NS(=O)(=O)C(F)(F)F)c(C)cc1C	0.58 mM (≈ 0.18 mg/mL)

same assay, conditions: 24 °C

SMILES	solubility
NC(=O)CCl	962 mM (≈ 90 mg/mL)
CC(C)N(N=O)C(C)C	99.9 mM (≈ 13 mg/mL)
O=C1CN(N=Cc2ccc([N+](=O)[O-])o2)C(=O)N1	0.334 mM (≈ 0.0795 mg/mL)

same assay, conditions: 25 °C

SMILES	solubility
CCCCC=O	136 mM (≈ 11.7 mg/mL)
Cc1nc(N(C)C)nc(OC(=O)N(C)C)c1C	11.3 mM (≈ 2.7 mg/mL)
Cc1cc2ccccc2cc1C	0.0127 mM (≈ 0.00199 mg/mL)
Oc1c2ccccc2cc2ccccc12	0.0185 mM (≈ 0.00359 mg/mL)
CC(=O)Nc1ccc(OC(C)=O)cc1	12.4 mM (≈ 2.39 mg/mL)
CC1=CCCCC1	0.541 mM (≈ 0.052 mg/mL)
CCOC(=S)SSC(=S)OCC	0.0114 mM (≈ 0.00276 mg/mL)
CCOC(=O)C(C)N(C(=O)c1ccccc1)c1ccc(Cl)c(Cl)c1 (stereo unspecified)	0.0546 mM (≈ 0.02 mg/mL)
Clc1ccc(Cl)c(-c2c(Cl)ccc(Cl)c2Cl)c1Cl	1.25e-05 mM (≈ 4.51e-06 mg/mL)
CC(=O)Oc1ccccc1C(=O)O	25.5 mM (≈ 4.6 mg/mL)
Nc1cc[nH]c(=O)n1	72 mM (≈ 8 mg/mL)
CCC(C)c1cc([N+](=O)[O-])cc([N+](=O)[O-])c1OC(C)=O (stereo unspecified)	7.79 mM (≈ 2.2 mg/mL)
Fc1ccccc1Cl	3.84 mM (≈ 0.501 mg/mL)
CCC1(C2=CCCCC2)C(=O)NC(=O)NC1=O	6.77 mM (≈ 1.6 mg/mL)
c1ccc2cc3cc4ccccc4cc3cc2c1	6.61e-06 mM (≈ 1.51e-06 mg/mL)
OCc1ccccc1	370 mM (≈ 40 mg/mL)
O=C1NC(=O)C([N+](=O)[O-])C(=O)N1	5.2 mM (≈ 0.9 mg/mL)
CCOP(=S)(OCC)O/N=C(\C#N)c1ccccc1	0.0179 mM (≈ 0.00535 mg/mL)
C[C@]12CCC(=O)C=C1CC[C@@H]1[C@@H]2CC[C@]2(C)C(=O)CC[C@@H]12	0.202 mM (≈ 0.0578 mg/mL)
CCCC(=O)OC	147 mM (≈ 15 mg/mL)
COc1ccc2c(c1OC)C(=O)OC2	12.9 mM (≈ 2.5 mg/mL)
Clc1ccc(Cl)c(-c2ccccc2)c1	0.00502 mM (≈ 0.00112 mg/mL)
CC(=O)Nc1ccccc1	51.3 mM (≈ 6.93 mg/mL)
Clc1cccc(-c2ccccc2)c1	0.0192 mM (≈ 0.00363 mg/mL)
Clc1cc(Cl)c(-c2ccccc2)c(Cl)c1	0.000978 mM (≈ 0.000252 mg/mL)

same assay, conditions: 27 °C

SMILES	solubility
c1cc2c3c(c1)ccc1cccc(c13)C2	0.00578 mM (≈ 0.0011 mg/mL)

same assay, conditions: 28 °C

SMILES	solubility
O=C(O)CCCC(=O)O	12100 mM (≈ 1600 mg/mL)

same assay, conditions: 30 °C

SMILES	solubility
CC(=O)Nc1nnc(S(N)(=O)=O)s1	4.41 mM (≈ 0.98 mg/mL)
